In brackets after ≈: the same amount, converted by molar mass. Where a SMILES comes first, the peptide text is derived from it. [ ]: non-standard residue; d: D form. 2Nal = N[C@@H](Cc1ccc2ccccc2c1)C(=O)O
Key:
Type in all cases: cell-based
[1] = test system: Staphylococcus aureus subsp strain (ATCC 25923, methicillin-resistant); assay: microbe, parasite or virus in culture
Procedure: (§1) Escherichia coli strain (ATCC 25922), Staphylococcus aureus subsp strain (ATCC 25923, methicillin-resistant), and Pseudomonas aeruginosa Migula strain (ATCC 27853, ampicillin-resistant) were used to test the antibacterial activity of the peptides. Bacteria were cultured in sterilized Mueller-Hinton (MH) culturing medium at 200 rpm and 37° C. for 8 hours.
(§2) After 8 hours culture, concentration of the inoculums were determined by measuring absorbance of optical density at 600 nm (OD 600=1, equal to approximately 10^8 CFU/mL) with UV/Visible spectrophotometer.
(§3) The antibacterial activities were determined by the standard broth microdilution method of National Committee for Clinical Laboratory Standards with the LYM broth. The LYM broth contains 5.4 mM KCl, 5.6 mM Na2HPO4, 0.5 mM MgSO4, and 1.0 mM sodium citrate. In addition, 0.4 mg of ZnCl2, 2.0 mg of FeCl3. 6H2O, 0.1 mg of CuSO4. 5H2O, 0.1 mg of MnSO4.H2O, 0.1 mg of Na2B4O7.10H2O, 700 mg of amino acid mixtures without tryptophan (Clontech), and 20 mg of L-Tryptophan were added per liter of medium. A vitamin mixture (100×, Sigma) and glucose at final concentration of 2% were also added.
(§4) 1 μl peptide solutions (ranging from 5000 μg/ml to 78 μg/ml in serial dilution) was prepared and mixed with 99 μl inoculum (5×10^5 CFU/ml) in polypropylene 96-well plate. The turbidity at OD 600 nm was measured by ELISA plate reader (Thermo Max, Molecular Devices, Sunnyvale, Calif.). The absorbance of culture medium and inoculum suspension without peptides were used as the negative and positive control, respectively. The minimum inhibitory concentration (MIC) value is the lowest concentration of peptide at which there is no obvious growth (equal or more than 90%). […] All peptides were tested in triplicate.

human fibroblast (HFW) = assay: MTT cytotoxicity to normal fibroblasts; conditions: MTT assay
Procedure: Human lung cancer line PC9 and A549, oral squamous cell carcinoma cell line OECM-1 were cultured in RPMI medium supplemented with 10% fetal bovine serum and antibiotic. Human tongue carcinoma cell line SAS, oral cancer cell line C9, and human diploid fibroblast (HFW) were cultured in DMEM medium supplemented with 10% fetal bovine serum and antibiotic. Cells were cultured in a humidified incubator containing 5% CO2 at 37° C.
The MTT assay was employed to determine the in vitro cytotoxicity. All cancer cell lines were seeded in 96-well plate with concentration 5000 cells/100 μl/well and incubated for 24 hours. HFW was seeded with 8000 cells/100 μl/well.
After medium was removed, 100 μl fresh medium containing peptide (ranging from 50 μM to 3.13 μM, HFW was treated with 75 μM and 100 μM peptide additionally) was added to the wells. Following 3, 12 or 24 hour incubation, fresh medium with MTT (0.5 mg/ml) was replaced and incubated for 3 hours. After medium/MTT was removed, DMSO was added at 100 μl for dissolving the formazan crystal. Cell survival rate was calculated by measuring the absorbance at 540 nm using Multi-labeled Microplate Reader (VICTOR3). For cancer cells, medium mixed with H2O2 (aq) represented positive control (all cells died) while medium only represented negative control. For normal cells, medium only represented positive control (all cells lived) while medium mixed with H2O2 (aq) represented negative control (all cells died).
The cytotoxicities of S1 and its analogs on human lung cancer cells (i.e, PC9, PC9-G and A549), human oral cancer cells (i.e, C9, OECM-1, and SAS), and human fibroblast (HFW) were evaluated by MTT assay for 3, 12 and 24 hours.

[2] = test system: Escherichia coli strain (ATCC 25922); assay: microbe, parasite or virus in culture; conditions: ATCC25922, E. coli ATCC 25922, LYM control, read-out: Minimum inhibitory concentration (MIC)
Procedure: as §1, §2, §3, §4

In the case of `CC(=O)N[C@@H](Cc1ccc2ccccc2c1)C(=O)N[C@@H](Cc1ccc2ccccc2c1)C(=O)N[C@@H](CCCCN)C(=O)N[C@@H](CCCCN)C(=O)N[C@@H](Cc1c[nH]c2ccccc12)C(=O)N[C@@H](CCCNC(=N)N)C(=O)N[C@@H](CCCCN)C(=O)N[C@@H](Cc1c[nH]c2ccccc12)C(=O)N[C@@H](CC(C)C)C(=O)N[C@@H](C)C(=O)N[C@@H](CCCCN)C(=O)N[C@@H](CCCCN)C(N)=O` [Nal2-S1, Ac-Nal-Nal-KKWRKWLAKK-NH2] (Ac-[2Nal][2Nal]KKWRKWLAKK-NH2), the “Minimum inhibitory concentration (MIC)” value ([1]; ATCC 25923, 8 h) is reported as 3.1 µg/mL (≈ 1.72 µM) and the “degrees of cytotoxicities to HFW (rank order)” value (from here on “degrees of cytotoxicities”) (human fibroblast (HFW)) is reported as “S1 peptide<K4R2-Nal2-S1 peptide<K6-Nal2-S1 peptide<Nal2-S1 peptide”.

In the case of `CC1(C)S[C@@H]2[C@H](NC(=O)[C@H](N)c3ccccc3)C(=O)N2[C@H]1C(=O)O` [AP, Ampicillin, reference compound], the MIC [2] is reported as 25 µg/mL (≈ 71.5 µM) and the MIC ([1]; Staphylococcus aureus, ATCC25923, S. aureus ATCC 25923, LYM control, read-out: Minimum inhibitory concentration (MIC)) is reported as 3.1 µg/mL (≈ 8.87 µM).

`CC(=O)N[C@@H](CCCCN)C(=O)N[C@@H](CCCCN)C(=O)N[C@@H](CCCCN)C(=O)N[C@@H](CCCCN)C(=O)N[C@@H](CCCCN)C(=O)N[C@@H](CCCCN)C(=O)N[C@@H](Cc1ccc2ccccc2c1)C(=O)N[C@@H](Cc1ccc2ccccc2c1)C(=O)N[C@@H](CCCCN)C(=O)N[C@@H](CCCCN)C(=O)N[C@@H](Cc1c[nH]c2ccccc12)C(=O)N[C@@H](CCCNC(=N)N)C(=O)N[C@@H](CCCCN)C(=O)N[C@@H](Cc1c[nH]c2ccccc12)C(=O)N[C@@H](CC(C)C)C(=O)N[C@@H](C)C(=O)N[C@@H](CCCCN)C(=O)N[C@@H](CCCCN)C(N)=O` [K6-Nal2-S1, Ac-KKKKKK-Nal-Nal-KKWRKWLAKK-NH2] (Ac-KKKKKK[2Nal][2Nal]KKWRKWLAKK-NH2) was tested, and the “degrees of cytotoxicities” value (human fibroblast (HFW)) was “S1 peptide<K4R2-Nal2-S1 peptide<K6-Nal2-S1 peptide<Nal2-S1 peptide”.

In the case of “Ac-KKWRKWLAKK-NH2 [S1, Ac-KKWRKWLAKK-NH2, reference compound]”, the “degrees of cytotoxicities” value (human fibroblast (HFW)) is reported as “S1 peptide<K4R2-Nal2-S1 peptide<K6-Nal2-S1 peptide<Nal2-S1 peptide”.

Reference: patent publication US10093699B2, “Peptides with antimicrobial, anticancer and/or wound-healing promoting activities, pharmaceutical compositions containing the same, and use of the peptides with antimicrobial, anticancer and/or wound-healing promoting activities” (priority 2015, dated 2018)
